For four compounds, EC50 results are on record in patent publication US10208074B2, “Pyrazole compounds and method for making and using the compounds” (Rigel Pharmaceuticals, Inc., priority 2015, dated 2019).

Read-outs that look alike come from different tables or passages of the source.

The test system of test [1] is IL-23 (p19/p40). Kind of test: IL23-p19 ELISA, Dendritic, LPS (compound screening using DC cells). It counts as cell-based, Human. The settings on record: PBMC-derived DC cells, IFNγ primed, LPS 1 μg/ml, 18 hours, 10 pt, read-out: IL23-p19 ELISA, Dendritic, LPS, 10 pt, EC50. A digest of the protocol:
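Human PBMC-derived dendritic cells (7 d GM-CSF 100 ng/ml + IL-4 20 ng/ml), primed 24 h with IFNγ 50 ng/ml, pre-incubated 1 h with compound, then stimulated 18 h with LPS 1 μg/ml. Supernatant IL-23 measured by p19-capture/p40-detection chemiluminescent ELISA; CellTiter Glo checks cytotoxicity.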
In general terms: An ELISA detects its analyte on a solid surface through an enzyme-linked reagent.

Test [2] relates to IL-23p19. Nature of the test: LPS induced IL23p19 in THP-1 cells (with IFNγ primed) assay. The settings on record: THP-1 cells, IFNγ primed, LPS 1 ug/mL, 18 hours, 10 pt, read-out: IL23-p19 ELISA, THP1-IFNy, LPS, 10 pt EC50. It counts as cell-based, Human. A digest of the protocol: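 THP-1 cells primed ~18 h with IFNγ (50 ng/mL), pre-incubated 1 h with compound at 37 °C, then stimulated 18 h with LPS (1 ug/mL final). Supernatant IL-23p19 measured by sandwich ELISA with chemiluminescent read-out; EC50 from curve fitting. Toxicity checked on the remaining cells by Cell Titer Glo.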

For the compound `CC(C)NC(=O)N1CC(n2cc(NC(=O)c3ccc(-c4cn[nH]c4)o3)c(-c3ccccn3)n2)C1` [Compound I-85, 3-[4-{5-(1H-Pyrazol-4-yl)furan-2-carboxamido}-3-(pyridine-2-yl)-1H-pyrazol-1-yl]-N-isopropylazetidine-1-carboxamide, free base], the EC50 (usually the midpoint of the concentration-response curve) in test [1] (Homo sapiens, 18 h) came to 19.6 nM; in test [2] (Homo sapiens, THP-1, 18 h) it was 76.7 nM.
As to `CCO[C@H]1C[C@@H](n2cc(NC(=O)c3csc(-c4cn[nH]c4F)n3)c(-c3ccccn3)n2)C1` [II-72, N-(1-((1s,3s)-3-ethoxycyclobutyl)-3-(pyridin-2-yl)-1H-pyrazol-4-yl)-2-(5-fluoro-1H-pyrazol-4-yl)thiazole-4-carboxamide], the concentration giving a half-maximal response (EC50) in test [1] is 140 nM; in test [2] it was 1140 nM.
As for `O=C(Nc1cn([C@H]2CC[C@H](O)CC2)nc1-c1ccccn1)c1csc(-c2cn[nH]c2)n1` [II-143, N-(1-((trans)-4-hydroxycyclohexyl)-3-(pyridin-2-yl)-1H-pyrazol-4-yl)-2-(1H-pyrazol-4-yl)thiazole-4-carboxamide], the EC50 was found to be 16.4 nM in test [1] (Homo sapiens, 18 h) and 30.8 nM in test [2] (Homo sapiens, THP-1, 18 h).
Taken in the same sequence, the figures for `Cn1cc(NC(=O)c2csc(-c3cnn(C(=O)OC4(C)CC4)c3)n2)c(-c2ccccn2)n1` [II-5, 1-methylcyclopropyl 4-(4-((1-methyl-3-(pyridin-2-yl)-1H-pyrazol-4-yl)carbamoyl)thiazol-2-yl)-1H-pyrazole-1-carboxylate] were 157 nM and 90.2 nM.
